Data as given in US5939404A, “Cancer metastasis inhibitor containing a streptococcus agalactiae Ia type or Ib type surface polysaccharide as a main ingredient” (NGK Insulators, Ltd., priority 1997, dated 1999).

Key:
[1] = system: adhesion of the cancer cells HL-60 to the intravascular endothelial cells; assay: Microscopic observation of adhesion of HL-60 cancer cells to intravascular endothelial cells (FIG. 8); type: cell-based, human; conditions: interleukin-1β added (FIG. 8b) vs not added (FIG. 8a)
Source text: Slender, large cells are intravascular endothelial cells, and whitish, bright, round cells are cancer cells HL-60.

[2] = system: E-selectin; assay: E-selectin appearance on intravascular endothelial cells by fluorescent microscopy with E-selectin antibody (FIG. 7); type: cell-based; conditions: interleukin-1β added (FIGS. 7(a), 7(b)) vs not added; human normal cells and strain #5
Procedure: FIGS. 7(a) through 7(d) are microphotographs obtained by photographing with a fluorescent microscope to confirm whether E-selectin was produced or not at the surfaces of the intravascular endothelial cells, through coloring the human normal intravascular endothelial cells and the cell-lined human intravascular endothelial cell strains #5 with E-selectin antibody. As compared with cases in which no interleukin-1β was added (FIGS. 7(c) and 7(d)), it is clear that appearance of E-selectin was induced in cases where interleukin-1β was added (FIGS. 7(a) and 7(b)).

[3] = system: adhesion between the cell-lined intravascular endothelial cell strain #5-1 and the cancer cells HL-60; assay: Adhesion inhibition of [35S]methionine-labeled HL-60 cancer cells to cell-lined intravascular endothelial cell strain #5-1 (FIGS. 9(a), 9(b)); type: cell-based, human; conditions: at a concentration at which the Ia or Ib sugar chain exhibited adhesion inhibiting activity
Procedure: (4) Next, how much adhesion of the cancer cell to the intravascular endothelial cells thus cultivated was inhibited by the addition of the sugar chain obtained above to the intravascular endothelial cells was examined. First, intravascular endothelial cells were placed on one plane of a 96-well plate, and appearance of E-selectin was induced by adding interleukin-1β to the cells. The cultivation for about 3 hours made E-selectin appear. The Ia type or Ib type sugar chain was added to it, and 1×10^4 cancer cells labeled with [^35 S] methionine were added to it, and the mixture was left at 37° C. for 30 minutes as it was. Thereafter, the mixture was immersed in and washed with PBS, and those cancer cells not adhered were washed off. The cells were recovered by adding 100 μl of a 0.1 N aqueous solution of sodium hydroxide to each of the 96-well plates, and a residual radioactivity value was measured by using a liquid scintillation counter.

## interleukin-1β: added to the cells to induce appearance of E-selectin
[1]
  adhesion of the cancer cells to the intravascular endothelial cells (microphotographs): more conspicuous
[2]
  appearance of E-selectin: induced

## colominic acid
[3]
  adhesion inhibiting activity: not almost exhibited
